In ChEMBL document CHEMBL5331054, “Antibacterial quaternary ammonium agents: Chemical diversity and biological mechanism” (Eur J Med Chem, 2022):

Legend:
Staphylococcus aureus [1] = assay: Antibacterial activity against Staphylococcus aureus assessed as bacterial growth inhibition incubated for 72 hrs by microdilution assay; format: functional, organism-based; conditions: Staphylococcus aureus; time 72 hrs
Enterococcus faecalis [2] = assay: Antibacterial activity against Enterococcus faecalis assessed as bacterial growth inhibition incubated for 72 hrs by microdilution method; format: functional
Escherichia coli [3] = assay: Antibacterial activity against Escherichia coli assessed as bacterial growth inhibition incubated for 72 hrs by microdilution method; format: functional; conditions: Escherichia coli, 72 h, read-out: MIC
Pseudomonas aeruginosa [4] = assay: Antibacterial activity against Pseudomonas aeruginosa assessed as bacterial growth inhibition incubated for 72 hrs by microdilution method; format: functional; conditions: Pseudomonas aeruginosa, 72 h, read-out: MIC
Staphylococcus aureus [5] = assay: Antibiofilm activity against Staphylococcus aureus ATCC 33591 assessed as reduction in biofilm activity; format: functional
Staphylococcus aureus [6] = assay: Antibacterial activity against methicillin-resistant Staphylococcus aureus assessed as bacterial growth inhibition; format: functional
Staphylococcus aureus [7] = assay: Antimicrobial activity against community acquired methicillin-resistant Staphylococcus aureus assessed as reduction in bacterial cell growth; format: functional
Enterococcus faecalis [8] = assay: Antimicrobial activity against Enterococcus faecalis; format: functional
Escherichia coli [9] = assay: Antimicrobial activity against Escherichia coli at 50 uM; format: functional
Escherichia coli [10] = assay: Antibacterial activity against Escherichia coli assessed as reduction in bacterial cell growth; format: functional
Klebsiella pneumoniae = assay: Antibacterial activity against Klebsiella pneumoniae ATCC 700603 assessed as inhibition of bacterial cell growth
Pseudomonas aeruginosa [11] = assay: Antibacterial activity against Pseudomonas aeruginosa ATCC 10145 by broth microdilution method; format: functional
Staphylococcus aureus [12] = assay: Antibacterial activity against methicillin-resistant Staphylococcus aureus assessed as bacterial cell growth inhibition incubated for 18 hrs by microbroth dilution method; format: functional
Escherichia coli [13] = assay: Antibacterial activity against Escherichia coli ATCC 11229 assessed as reduction in bacterial cell growth incubated for 24 hrs by microtiter plate reader assay; format: functional
Bacillus subtilis = assay: Antibacterial activity against Bacillus subtilis ATCC 6633 assessed as reduction in bacterial cell growth incubated for 24 hrs by microtiter plate reader assay; format: functional
Salmonella enterica = assay: Antibacterial activity against Salmonella enterica ATCC 14028 assessed as reduction in bacterial cell growth incubated for 24 hrs by microtiter plate reader assay; format: functional
Staphylococcus aureus [14] = assay: Antibacterial activity against Staphylococcus aureus; format: functional
Enterococcus faecalis [15] = assay: Antibacterial activity against Enterococcus faecalis ATCC 29212 assessed as inhibition of bacterial growth incubated for 16 to 18 hrs by broth microdilution method; format: functional; conditions: time 16-18 hrs
Escherichia coli [16] = assay: Antibacterial activity against Escherichia coli ATCC 25922 assessed as inhibition of bacterial growth incubated for 16 to 18 hrs by broth microdilution method; format: functional; conditions: time 16-18 hrs
Pseudomonas aeruginosa [17] = assay: Antibacterial activity against Pseudomonas aeruginosa ATCC 27853 assessed as inhibition of bacterial growth incubated for 16 to 18 hrs by broth microdilution method; format: functional; conditions: time 16-18 hrs
Staphylococcus aureus [18] = assay: Antibacterial activity against methicillin-resistant Staphylococcus aureus assessed as bacterial growth inhibition measured after 16 to 18 hrs by broth microdilution method; format: functional; conditions: time 16-18 hrs
Staphylococcus aureus [19] = assay: Antibacterial activity against Staphylococcus aureus ATCC 700699 assessed as reduction in bacterial cell growth incubated for 24 hrs by microtiter plate reader assay; format: functional
Staphylococcus aureus [20] = assay: Antibacterial activity against methicillin resistant Staphylococcus aureus assessed as reduction in bacterial cell growth incubated for 18 to 24 hrs by microbroth dilution assay; format: functional; conditions: time 18-24 hrs
Staphylococcus aureus [21] = assay: Antibacterial activity against Staphylococcus aureus ATCC 29213 assessed as inhibition of bacterial growth incubated for 16 hrs by CLSI based broth microdilution method; format: functional
Enterococcus faecalis [22] = assay: Antibacterial activity against Enterococcus faecalis ATCC 29212 assessed as inhibition of bacterial growth incubated for 16 hrs by CLSI based broth microdilution method; format: functional
Enterococcus faecalis [23] = assay: Antibacterial activity against vancomycin-resistant Enterococcus faecalis assessed as inhibition of bacterial growth incubated for 16 hrs by CLSI based broth microdilution method; format: functional
Pseudomonas aeruginosa [24] = assay: Antibacterial activity against Pseudomonas aeruginosa ATCC 27853 assessed as inhibition of bacterial growth incubated for 16 hrs by CLSI based broth microdilution method; format: functional
Staphylococcus aureus [25] = assay: Antibacterial activity against methicillin-sensitive Staphylococcus aureus assessed as reduction in microbial growth; format: functional
Pseudomonas aeruginosa [26] = assay: Antibacterial activity against Pseudomonas aeruginosa assessed as reduction in bacterial cell growth; format: functional
Staphylococcus aureus [27] = assay: Antibacterial activity against methicillin-resistant Staphylococcus aureus […] assessed as reduction in bacterial cell growth; format: functional

CCCCCCCCCCCCC[N+](C)(C)CCCN(C)CCC[N+](C)(C)CCCCCCCCCCCC.[Br-].[Br-]
MIC (Staphylococcus aureus [1]): 1 µM | MIC (Enterococcus faecalis [2]): < 0.25 µM | MIC (Escherichia coli [3]): < 0.25 µM | MIC (Pseudomonas aeruginosa [4]): 4 µM | MBEC (Staphylococcus aureus [5]): 50 µM

CCCCCCCCCCC[n+]1ccc(CCCc2cc[n+](CCCCCCCCCCC)cc2)cc1
MIC (Staphylococcus aureus [1]): 0.25 µM | MIC (Staphylococcus aureus [6]): 0.25 µM | MIC (Staphylococcus aureus [7]): 0.25 µM | MIC (Enterococcus faecalis [8]): 0.5 µM | MIC (Escherichia coli [9]): 0.5 µM

CCCCCCCCC[n+]1cccc(Oc2ccc(-c3ccc(Oc4ccc[n+](CCCCCCCCC)c4)cc3)cc2)c1.[I-].[I-]
MIC (Staphylococcus aureus [6]): < 0.25 µg/mL | MIC (Escherichia coli [10]): 0.5 µg/mL | MIC (Klebsiella pneumoniae): 8 µg/mL

CCCCCCCC[n+]1ccc(SCCCCCCSc2cc[n+](CCCCCCCC)cc2)cc1.[Br-].[Br-]
MIC (Pseudomonas aeruginosa [11]): 8 µg/mL | MIC (Staphylococcus aureus [12]): 8 µg/mL

CCCCCCCCCCCCCCCCCCNC(=O)CC[C@@H](C)[C@H]1CC[C@H]2[C@@H]3[C@H](OC(=O)C[n+]4ccccc4)C[C@@H]4C[C@H](OC(=O)C[n+]5ccccc5)CC[C@]4(C)[C@H]3C[C@H](O)[C@]12C.[Cl-].[Cl-]
MIC (Escherichia coli [13]): 0.8 µg/mL | MIC (Bacillus subtilis): 0.8 µg/mL | MIC (Salmonella enterica): 1.6 µg/mL

CCCCCCCCCCCC[N+]12CC[N+](CCCCCCCCCCCC)(CC1)CC2
MIC (Staphylococcus aureus [14]): 0.25 µM | MIC (Enterococcus faecalis [15]): 4 µM | MIC (Escherichia coli [16]): 2 µM | MIC (Pseudomonas aeruginosa [17]): 8 µM | MIC (Staphylococcus aureus [18]): 0.5 µM

CCCCCCCCCCCCCCCCCC[N+](C)(C)Cc1cnc(C)c(O)c1C.Cl.[Cl-]
MIC (Staphylococcus aureus [19]): 0.5 µg/mL

CC(C)(C)n1cc[n+](CCCCCCCCCCCC[n+]2ccn(C(C)(C)C)c2)c1.[Br-].[Br-]
MIC (Escherichia coli [13]): 0.5 µg/mL | MIC (Staphylococcus aureus [20]): 0.5 µg/mL | MIC (Staphylococcus aureus [21]): 0.25 µg/mL | MIC (Enterococcus faecalis [22]): 0.5 µg/mL | MIC (Enterococcus faecalis [23]): 0.5 µg/mL | MIC (Pseudomonas aeruginosa [24]): 4 µg/mL

CCCCCCCCCCC[n+]1ccc(CCc2cc[n+](CCCCCCCCCCC)cc2)cc1
MIC (Staphylococcus aureus [25]): 1 µM | MIC (Pseudomonas aeruginosa [26]): 4 µM

CCCCCCCCCCCC[n+]1cccc(C[N+](C)(C)CCCCCCCCCCCC)c1
MIC (Staphylococcus aureus [27]): 1 µM
